Source: ChEMBL document CHEMBL1201862, “PubChem BioAssay data set” (2004)
Several values for one entry are separate records, joined by “and”; a condition that tells them apart may be missing. Identical values can stand only once. Activity calls are given as the source filed them.

Tests used:
[1] = target: T1, Cysteine protease ATG4B (Homo sapiens, UniProt Q9Y4P1); assay type: functional;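 note: Fluorescence-based dose-response confirmation assay measuring inhibition of ATG4B activity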
T1 sequence (Q9Y4P1 whole entry): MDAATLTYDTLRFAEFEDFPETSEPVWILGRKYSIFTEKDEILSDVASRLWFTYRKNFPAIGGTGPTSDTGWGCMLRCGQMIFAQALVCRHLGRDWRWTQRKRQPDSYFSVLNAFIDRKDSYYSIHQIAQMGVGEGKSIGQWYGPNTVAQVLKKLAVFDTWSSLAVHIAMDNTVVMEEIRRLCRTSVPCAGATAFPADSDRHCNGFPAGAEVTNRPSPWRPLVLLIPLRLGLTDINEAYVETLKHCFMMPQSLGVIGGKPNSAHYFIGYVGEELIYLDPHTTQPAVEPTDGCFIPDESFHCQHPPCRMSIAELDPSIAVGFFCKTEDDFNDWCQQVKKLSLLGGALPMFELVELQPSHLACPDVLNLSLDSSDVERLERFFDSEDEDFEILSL

[2] = system: HEK293; experiment: cells; conditions: Homo sapiens
[3] = system: HEK293; experiment: cells; conditions: Homo sapiens; remark: listed apart in the source
[4] = target: Phospholipase A2 (Homo sapiens, UniProt P04054); assay type: functional;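 note: confirmatory dose-response counterscreen on phospholipase A2, testing hits that came from an ultra-high-throughput screen for ATG4B inhibitors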
[5] = target: Dual specificity tyrosine-phosphorylation-regulated kinase 1A (Rattus norvegicus, UniProt Q63470); assay type: biochemical, Homo sapiens
[6] = target: Voltage-gated inwardly rectifying potassium channel KCNH2 (Homo sapiens, UniProt Q12809); conditions: Potency;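 note: confirmatory quantitative high-throughput screen measuring inhibition of hERG channel activity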
[7] = target: T2, Cytochrome P450 2C19 (Homo sapiens, UniProt P33261); experiment: Cytochrome panel assay with activity outcomes. Panel member name: p450-cyp2c19 Compounds with AC50 equal or less than 10 uM are considered active; assay type: functional; conditions: read-out: AC50
[8] = target: T3, Rac GTPase-activating protein 1 (Homo sapiens, UniProt Q9H0H5); experiment: MgcRacGAP GTPase-activating activity inhibitors, confirmation, biochemical, ADP Hunter fluorescence, primary and confirmatory (AID 624330); assay type: functional
T3 sequence (Q9H0H5 whole entry): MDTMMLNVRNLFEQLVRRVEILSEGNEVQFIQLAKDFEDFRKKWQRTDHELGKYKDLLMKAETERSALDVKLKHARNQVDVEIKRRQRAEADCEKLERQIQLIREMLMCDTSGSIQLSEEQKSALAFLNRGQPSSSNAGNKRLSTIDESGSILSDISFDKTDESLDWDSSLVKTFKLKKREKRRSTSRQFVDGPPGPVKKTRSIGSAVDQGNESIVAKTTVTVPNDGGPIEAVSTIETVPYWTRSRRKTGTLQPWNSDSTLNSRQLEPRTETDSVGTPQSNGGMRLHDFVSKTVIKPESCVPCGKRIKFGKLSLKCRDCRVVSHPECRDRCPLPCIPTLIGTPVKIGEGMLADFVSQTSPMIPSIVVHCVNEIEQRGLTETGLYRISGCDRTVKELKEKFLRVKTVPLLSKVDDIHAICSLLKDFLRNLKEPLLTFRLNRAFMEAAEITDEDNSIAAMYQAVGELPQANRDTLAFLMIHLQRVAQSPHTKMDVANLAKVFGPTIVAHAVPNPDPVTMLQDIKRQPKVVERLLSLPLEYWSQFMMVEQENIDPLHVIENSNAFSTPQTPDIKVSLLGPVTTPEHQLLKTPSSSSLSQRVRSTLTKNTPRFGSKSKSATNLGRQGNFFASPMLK

[9] = target: T2, Cytochrome P450 2C19; experiment: qHTS Assay for Inhibitors and Substrates of Cytochrome P450 2C19. [Related pubchem assays: 410 ]; assay type: ADME; conditions: read-out: Potency
[10] = target: Cytochrome P450 2C9 (Homo sapiens, UniProt P11712)
[11] = target: T4, Carboxy-terminal domain RNA polymerase II polypeptide A small phosphatase 1 (Homo sapiens, UniProt Q9GZU7); experiment: inhibitors of CTDSP1, concentration-response testing, biochemical assay, absorbance-based, actives from ultra-high-throughput screening (AID 540297); assay type: functional
T4 sequence (Q9GZU7 whole entry): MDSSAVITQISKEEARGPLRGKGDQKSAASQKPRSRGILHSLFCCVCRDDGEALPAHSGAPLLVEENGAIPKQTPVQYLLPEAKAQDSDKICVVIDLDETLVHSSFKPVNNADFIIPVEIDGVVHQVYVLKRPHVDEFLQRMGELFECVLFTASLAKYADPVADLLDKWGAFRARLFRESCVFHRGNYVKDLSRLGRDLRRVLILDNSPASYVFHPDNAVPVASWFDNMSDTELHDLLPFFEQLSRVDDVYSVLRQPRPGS

[12] = target: Aryl hydrocarbon receptor (Homo sapiens, UniProt P35869); conditions: Potency;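 note: confirmatory quantitative high-throughput screen measuring activation of the AhR signaling pathway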
[13] = system: A-375; experiment: MITF: Counter assay: A375 proliferation Measured in Cell-Based System Using Plate Reader - 2084-03_Inhibitor_Dose_DryPowder_Activity. [Related pubchem assays (depositor defined):AID488944]; assay type: functional; conditions: Homo sapiens
[14] = system: A-375; experiment: A375 melanoma cell viability reduction, dose response, counter-screen for MITF modulator project, cherry-pick samples, set 2 (AID 540335); assay type: functional, cell-based; conditions: Homo sapiens
[15] = target: T5, Microphthalmia-associated transcription factor (Homo sapiens, UniProt O75030); experiment: TRPM1 promoter luciferase signal decrease, dose response, MITF inhibitor project, cell-based, SK-MEL-5, cherry-picked, set 3 (AID 493073); assay type: functional
T5 sequence (O75030 whole entry): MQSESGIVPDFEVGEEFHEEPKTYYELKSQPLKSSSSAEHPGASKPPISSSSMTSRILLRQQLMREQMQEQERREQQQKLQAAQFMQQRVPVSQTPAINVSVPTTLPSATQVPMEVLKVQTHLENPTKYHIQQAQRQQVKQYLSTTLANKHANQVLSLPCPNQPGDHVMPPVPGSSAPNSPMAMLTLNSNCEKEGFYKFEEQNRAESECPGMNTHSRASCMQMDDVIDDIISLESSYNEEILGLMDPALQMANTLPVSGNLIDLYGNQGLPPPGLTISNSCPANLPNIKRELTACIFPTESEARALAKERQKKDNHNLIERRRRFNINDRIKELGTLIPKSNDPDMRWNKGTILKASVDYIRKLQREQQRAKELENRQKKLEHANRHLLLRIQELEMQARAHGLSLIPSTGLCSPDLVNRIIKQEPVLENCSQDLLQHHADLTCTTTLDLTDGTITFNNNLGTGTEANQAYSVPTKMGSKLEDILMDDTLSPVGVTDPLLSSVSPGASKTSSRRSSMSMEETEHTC

T2 sequence (P33261 whole entry): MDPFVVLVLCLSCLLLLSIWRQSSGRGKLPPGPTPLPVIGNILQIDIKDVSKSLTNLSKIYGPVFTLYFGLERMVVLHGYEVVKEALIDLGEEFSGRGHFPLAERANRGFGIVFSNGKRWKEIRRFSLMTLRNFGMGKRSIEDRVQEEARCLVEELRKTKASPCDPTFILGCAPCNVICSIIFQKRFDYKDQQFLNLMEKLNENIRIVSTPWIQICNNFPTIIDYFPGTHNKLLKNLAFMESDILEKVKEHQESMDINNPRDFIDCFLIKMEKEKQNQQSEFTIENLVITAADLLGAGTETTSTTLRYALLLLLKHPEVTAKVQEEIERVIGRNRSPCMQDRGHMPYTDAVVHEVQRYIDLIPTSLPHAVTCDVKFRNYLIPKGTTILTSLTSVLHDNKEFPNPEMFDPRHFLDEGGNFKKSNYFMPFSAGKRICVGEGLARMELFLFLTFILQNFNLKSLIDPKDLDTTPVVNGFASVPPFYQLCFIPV
Aryl hydrocarbon receptor, sequence (P35869 whole entry): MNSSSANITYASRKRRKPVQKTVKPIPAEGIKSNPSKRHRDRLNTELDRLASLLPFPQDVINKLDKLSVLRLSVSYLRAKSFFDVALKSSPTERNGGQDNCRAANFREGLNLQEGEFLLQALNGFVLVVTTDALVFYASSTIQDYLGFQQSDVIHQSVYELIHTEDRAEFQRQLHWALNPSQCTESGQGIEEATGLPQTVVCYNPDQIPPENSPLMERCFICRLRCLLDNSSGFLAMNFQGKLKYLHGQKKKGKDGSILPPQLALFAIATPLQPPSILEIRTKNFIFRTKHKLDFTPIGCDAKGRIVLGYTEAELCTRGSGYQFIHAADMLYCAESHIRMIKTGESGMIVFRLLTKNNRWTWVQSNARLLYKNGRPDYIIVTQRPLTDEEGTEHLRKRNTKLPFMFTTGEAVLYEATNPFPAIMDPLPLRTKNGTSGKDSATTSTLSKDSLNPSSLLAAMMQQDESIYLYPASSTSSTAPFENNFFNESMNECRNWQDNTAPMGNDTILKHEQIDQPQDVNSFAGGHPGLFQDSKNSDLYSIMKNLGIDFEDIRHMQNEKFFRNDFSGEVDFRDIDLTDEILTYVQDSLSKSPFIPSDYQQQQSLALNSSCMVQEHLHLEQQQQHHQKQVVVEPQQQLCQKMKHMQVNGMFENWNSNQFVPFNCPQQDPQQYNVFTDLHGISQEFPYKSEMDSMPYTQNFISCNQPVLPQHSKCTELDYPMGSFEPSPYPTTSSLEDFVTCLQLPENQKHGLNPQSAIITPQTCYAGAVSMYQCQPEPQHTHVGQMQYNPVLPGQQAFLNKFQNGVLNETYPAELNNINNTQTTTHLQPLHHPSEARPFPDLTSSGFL
Cytochrome P450 2C9, sequence (P11712 whole entry, the tested form may be a part): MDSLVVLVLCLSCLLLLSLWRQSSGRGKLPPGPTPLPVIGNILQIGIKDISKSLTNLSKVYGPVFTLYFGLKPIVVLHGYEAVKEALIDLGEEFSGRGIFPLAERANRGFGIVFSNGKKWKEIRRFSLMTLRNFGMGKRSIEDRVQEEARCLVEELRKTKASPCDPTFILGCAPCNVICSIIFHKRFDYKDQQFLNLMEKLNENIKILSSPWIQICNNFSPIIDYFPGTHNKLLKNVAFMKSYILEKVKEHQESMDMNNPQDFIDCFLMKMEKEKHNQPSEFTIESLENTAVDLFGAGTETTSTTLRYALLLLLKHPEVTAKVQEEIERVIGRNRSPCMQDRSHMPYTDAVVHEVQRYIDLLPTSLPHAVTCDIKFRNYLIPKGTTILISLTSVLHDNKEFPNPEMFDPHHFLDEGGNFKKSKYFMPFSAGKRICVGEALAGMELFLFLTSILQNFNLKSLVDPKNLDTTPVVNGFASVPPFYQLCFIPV
Phospholipase A2, sequence (P04054 whole entry): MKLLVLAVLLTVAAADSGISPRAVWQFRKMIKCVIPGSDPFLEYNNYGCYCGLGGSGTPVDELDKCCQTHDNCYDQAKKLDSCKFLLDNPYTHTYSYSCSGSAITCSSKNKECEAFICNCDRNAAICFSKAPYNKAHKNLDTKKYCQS
Voltage-gated inwardly rectifying potassium channel KCNH2, sequence (Q12809 whole entry): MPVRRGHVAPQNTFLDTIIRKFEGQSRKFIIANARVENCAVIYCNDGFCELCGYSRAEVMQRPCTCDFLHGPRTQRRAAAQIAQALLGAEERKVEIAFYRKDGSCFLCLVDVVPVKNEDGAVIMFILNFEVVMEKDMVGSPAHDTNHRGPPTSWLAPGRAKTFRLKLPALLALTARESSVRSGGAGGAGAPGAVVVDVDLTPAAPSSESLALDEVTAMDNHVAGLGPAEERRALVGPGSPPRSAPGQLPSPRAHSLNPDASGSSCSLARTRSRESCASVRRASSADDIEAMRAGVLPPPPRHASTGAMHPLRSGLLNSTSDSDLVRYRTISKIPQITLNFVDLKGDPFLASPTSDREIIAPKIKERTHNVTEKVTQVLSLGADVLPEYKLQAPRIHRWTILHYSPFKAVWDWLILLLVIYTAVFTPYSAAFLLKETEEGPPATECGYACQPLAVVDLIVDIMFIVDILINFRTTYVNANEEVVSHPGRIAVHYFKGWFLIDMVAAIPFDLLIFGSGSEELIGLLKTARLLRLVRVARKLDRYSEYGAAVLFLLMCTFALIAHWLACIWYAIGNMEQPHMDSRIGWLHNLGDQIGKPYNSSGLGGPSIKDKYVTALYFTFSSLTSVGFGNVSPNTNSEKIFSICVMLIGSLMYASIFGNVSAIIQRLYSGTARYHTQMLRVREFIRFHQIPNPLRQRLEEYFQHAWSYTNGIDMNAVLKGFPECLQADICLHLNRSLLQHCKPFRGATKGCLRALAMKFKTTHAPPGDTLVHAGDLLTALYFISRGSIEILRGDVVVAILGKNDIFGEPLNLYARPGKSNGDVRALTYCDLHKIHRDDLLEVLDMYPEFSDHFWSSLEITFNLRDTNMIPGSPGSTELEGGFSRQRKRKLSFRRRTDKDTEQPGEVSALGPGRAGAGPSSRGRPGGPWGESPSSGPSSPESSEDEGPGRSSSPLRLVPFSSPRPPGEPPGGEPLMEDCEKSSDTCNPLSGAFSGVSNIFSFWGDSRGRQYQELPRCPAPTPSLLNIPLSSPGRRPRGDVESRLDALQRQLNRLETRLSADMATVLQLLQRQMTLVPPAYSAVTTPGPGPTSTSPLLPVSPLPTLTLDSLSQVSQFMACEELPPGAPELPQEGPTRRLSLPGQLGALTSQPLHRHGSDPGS

With `CCNc1nc(CSc2ccccc2)nc2sc(C)c(C)c12` the IC50 [1] was 10.3 µM (active), the EC50 [2] was > 59.7 µM (inactive) and the EC50 [3] was > 59.7 µM (inactive). The IC50 [4] was 8.4 µM (active).
For `O=c1c(O)c(-c2ccc(O)cc2)oc2cc(O)cc(O)c12` [KAEMPFEROL], the AC50 [5] was 1.26 µM (active), the AC50 [6] was 0.0022 µM (inconclusive) and the AC50 [7] was 6.31 µM (inconclusive). The IC50 [8] was 44.5 µM (active), the AC50 [9] was 10 µM (inconclusive) and the AC50 [10] was 0.00126 µM (inconclusive). The IC50 [11] was 9.93 µM (active) and the AC50 [12] was 44.7 µM (inconclusive) and 56.2 µM (inconclusive).
`O=C(Nc1ccc(OC(=O)N2CCCCC2)cc1)N1CCOCC1` was tested, and the AC50 [13] was > 35 µM (active), the AC50 [14] was > 35 µM (active) and the AC50 [15] was 27.4 µM (active).
